Results from publication PMC4286326 (Journal of the American Chemical Society, 2014).
Where two headings read alike, the source gives them in different places.

Assays:
[1] = test system: WT M2-expressing A/Udorn/72; assay: microbe, parasite or virus in culture; format: cell-based; conditions: Influenza A virus, MDCK, read-out: A/Udorn/72 (S31) EC50
[2] = in vitro; conditions: dog
[3] = target: WT M2 (A/M2) (Influenza A virus, UniProt P0DOF5); assay: biochemical
Sequence of WT M2 (A/M2) (P0DOF5 whole entry, looked up): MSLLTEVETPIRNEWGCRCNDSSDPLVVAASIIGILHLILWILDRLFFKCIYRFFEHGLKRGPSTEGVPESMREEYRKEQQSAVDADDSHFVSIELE

Compound | EC50 [1] [µM] | CC50 [2] [µM] | inhibition at 100 µM ([3]; read-out: % WT inhibition) [%] | inhibition at 100 µM ([3]; read-out: % WT(S31) inhibition) [%]
NC12CC3CC(CC(C3)C1)C2 [Compound 1, amantadine, reference compound] | 0.3 | > 300 |  | 
Brc1ccc(CNC23CC4CC(CC(C4)C2)C3)s1 [Compound 11, N-[(5-bromothiophen-2-yl)methyl]adamantan-1-amine] | 4.6 | 123 | 77 | 77
